Assay results: patent US6387411B2, “Method for producing dispersible sterol and stanol compounds” (McNeil-PPC, Inc., priority 1998, dated 2002)

Tests used:
[1] = Wetting and time to disperse of powdered matrix in unstirred water; assay type: physicochemical; settings: similar conditions to Example 5 (200 mg in 250 ml water); up to three days vigorous stirring
Description: Another technique for measuring the crystallinity of the solid matrix is to measure the time in which a ground powdered sample of the solid takes to disperse in unstirred water. When an appropriate amount of the appropriate hydrocarbon material has been added, […], preferably in less than about 45 seconds and most preferably less than about 30 seconds. Agitation, including mild agitation such as a stirring bar, can be employed to enhance the dissolution of the solid solution in water.
Additional sitosterol/docusate sodium matrices were prepared and added to water.

[2] = Turbidity of ground sterol/docusate sodium matrix shaken in water; assay type: physicochemical; settings: shaken 30 seconds in 25 milliliter deionized water; for Turbidity, Series 2: measured after standing 20 minutes; for Turbidity, Series 1: measured after standing one minute
Description: Yet another method to determine whether the desired level of hydrocarbon has been added to the sterol/stanol, is to measure the turbidity of the solution after 100 milligrams of the ground sterol/stanol/hydrocarbon are added to water. The greater turbidity value, the more effectively the solid solution is able to be dispersed in water. […] Preferred turbidity levels are greater than about 1500, preferably greater than 2000 and most preferably greater than 3000 Nephelometric Turbidity Units (NTU). As used herein turbidity is understood to be the same as defined by the United States Pharmacopeia, 15th Edition, the light scattering effect of suspended particles and turbidity as the measure of the decrease in the incident beam intensity per unit length of a given suspension. The range of turbidty values is from 0 to 20,000 NTU. As a point of reference the turbidity of water is zero. The turbidity of the samples is measured at room temperature.
A docusate sodium/β-sitosterol matrix was prepared. The sample was shaken for 30 seconds in a vial containing 25 milliliter deionized water. In Series 1, turbidity measurements were taken after allowing the shaken sample to stand one minute. In Series 2, measurements were made after standing for 20 minutes.

Compound | Wetting in water [1] | Turbidity, Series 2 [2] | Turbidity, Series 1 [2]
CC[C@H](CC[C@@H](C)[C@H]1CC[C@H]2[C@@H]3CC=C4C[C@@H](O)CC[C@]4(C)[C@H]3CC[C@]12C)C(C)C [100% sterol, β-sitosterol] | does not wet at all | 523 NTU | 1301 NTU
CCCCC(CC)COC(=O)CC(C(=O)OCC(CC)CCCC)S(=O)(=O)[O-].[Na+] (centres unmarked) [100% docusate sodium, docusate sodium] | – | 0.441 NTU | 1.22 NTU
